ChEMBL document CHEMBL1201862, “PubChem BioAssay data set” (2004)
Calls of active or inactive are those of the source.

Assays:
[1] = biological target: T1, Polyadenylate-binding protein 1 (Homo sapiens, UniProt P11940); assay: PABP poly(A) RNA binding inhibitors, primary screen, biochemical, fluorescence polarization, uHTS (AID 2014)
[2] = biological target: T2, Eukaryotic translation initiation factor 4H (Homo sapiens, UniProt Q15056); assay: eIF4H inhibition in translation initiation, SAR follow-up (AID 435011); assay type: functional
[3] = biological target: T2, Eukaryotic translation initiation factor 4H; assay: human eIF4H binding inhibitors, primary screen, translation initiation inhibitor project, biochemical, uHTS, fluorescence polarization (AID 2012)
[4] = biological target: T1, Polyadenylate-binding protein 1; assay: PABP inhibition in translation initiation, SAR follow-up (AID 435018); assay type: functional
Vero = assay: Vero E6 cell cytotoxicity, SAR follow-up, cytotoxicity control for West Nile virus antiviral project, synthesized analogs (AID 2244); assay type: functional; settings: Chlorocebus sabaeus
Aspartyl aminopeptidase = biological target: T3, Aspartyl aminopeptidase (Plasmodium falciparum 3D7, UniProt Q8I2J3)
T3 sequence (Q8I2J3 whole entry): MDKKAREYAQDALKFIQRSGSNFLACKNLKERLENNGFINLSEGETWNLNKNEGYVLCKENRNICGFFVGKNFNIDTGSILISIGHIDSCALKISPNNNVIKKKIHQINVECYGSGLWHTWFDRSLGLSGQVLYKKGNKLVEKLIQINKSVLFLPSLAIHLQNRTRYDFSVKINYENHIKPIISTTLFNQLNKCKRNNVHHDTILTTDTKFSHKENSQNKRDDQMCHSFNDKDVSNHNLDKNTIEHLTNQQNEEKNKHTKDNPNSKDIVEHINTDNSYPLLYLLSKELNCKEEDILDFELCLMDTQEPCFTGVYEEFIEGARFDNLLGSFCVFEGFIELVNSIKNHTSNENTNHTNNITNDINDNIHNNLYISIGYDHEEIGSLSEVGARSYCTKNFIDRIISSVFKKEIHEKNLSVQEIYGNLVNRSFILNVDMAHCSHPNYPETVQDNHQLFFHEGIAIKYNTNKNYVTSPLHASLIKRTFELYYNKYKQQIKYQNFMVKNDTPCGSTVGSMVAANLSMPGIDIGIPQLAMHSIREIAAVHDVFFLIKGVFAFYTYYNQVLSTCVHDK

Procathepsin L = Procathepsin L (Homo sapiens, UniProt P07711)
Staphylococcus aureus = assay: Inhibitors of Bacterial Quorum Sensing Structure Activity Relationship (SAR) Analysis: Dose Response Assay. [Related pubchem assays: 700, 527 ]; assay type: functional, organism-based
[5] = biological target: G-protein coupled receptor 35 (Homo sapiens, UniProt Q9HC97); assay: GPR35 antagonists blocking zaprinast-driven arrestin recruitment, primary screen, imaging, U2OS, beta-arrestin-GFP, zaprinast agonist (AID 2058); assay type: functional;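 also: antagonist potency meaning inhibition of agonist-induced arrestin redistribution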
[6] = biological target: Serine/threonine-protein phosphatase (Homo sapiens, UniProt Q9BPW0); assay: Counterscreen for inhibitors of PP1: fluorescence-based biochemical high throughput dose response assay to identify inhibitors of Protein Phosphatase 5 (PP5). [Related pubchem assays: 2034 (Summary (PP5 inhibitors)), 1987 (PP5 inhibitors in singlate), 2235 (PP1 inhibitors in singlate)]
Protein RecA = biological target: T4, Protein RecA (Mycobacterium tuberculosis, UniProt P9WHJ3); assay: Fluorescence Cell-Free Homogeneous Dose Retest to Identify Inhibitors of RecA-Intein Splicing Activity. [Related pubchem assays (depositor defined):AID2097, AID2223, AID489010, AID492950]; assay type: functional
T4 sequence (P9WHJ3 whole entry): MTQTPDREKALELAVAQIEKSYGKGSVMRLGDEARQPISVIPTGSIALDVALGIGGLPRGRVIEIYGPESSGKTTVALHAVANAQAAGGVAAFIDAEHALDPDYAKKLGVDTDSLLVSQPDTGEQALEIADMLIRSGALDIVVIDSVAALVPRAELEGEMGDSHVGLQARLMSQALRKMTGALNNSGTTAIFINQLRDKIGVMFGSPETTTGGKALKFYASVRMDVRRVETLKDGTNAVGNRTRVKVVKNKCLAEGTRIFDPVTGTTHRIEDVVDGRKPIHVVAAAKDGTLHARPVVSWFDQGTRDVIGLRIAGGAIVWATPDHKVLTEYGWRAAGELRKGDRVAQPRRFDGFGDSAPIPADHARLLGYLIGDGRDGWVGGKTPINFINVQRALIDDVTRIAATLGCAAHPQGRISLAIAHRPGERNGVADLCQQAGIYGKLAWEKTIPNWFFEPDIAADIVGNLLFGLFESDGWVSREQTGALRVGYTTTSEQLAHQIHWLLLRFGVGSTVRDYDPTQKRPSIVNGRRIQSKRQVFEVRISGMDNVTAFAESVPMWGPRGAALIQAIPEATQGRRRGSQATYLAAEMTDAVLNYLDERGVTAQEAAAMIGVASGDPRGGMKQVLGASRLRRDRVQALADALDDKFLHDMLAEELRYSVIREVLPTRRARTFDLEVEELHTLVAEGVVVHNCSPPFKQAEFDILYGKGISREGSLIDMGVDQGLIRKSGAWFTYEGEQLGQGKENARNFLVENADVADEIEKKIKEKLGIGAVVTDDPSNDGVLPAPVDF

[7] = biological target: Dual specificity tyrosine-phosphorylation-regulated kinase 1A (Rattus norvegicus, UniProt Q63470); assay type: biochemical, Homo sapiens
[8] = biological target: T5, Replicative DNA helicase DnaB (Mycobacterium tuberculosis, UniProt P9WMR3); assay: DnaB intein splicing inhibitors, dose response, biochemical, cell-free fluorescence (AID 449749); assay type: functional
T5 sequence (P9WMR3 whole entry): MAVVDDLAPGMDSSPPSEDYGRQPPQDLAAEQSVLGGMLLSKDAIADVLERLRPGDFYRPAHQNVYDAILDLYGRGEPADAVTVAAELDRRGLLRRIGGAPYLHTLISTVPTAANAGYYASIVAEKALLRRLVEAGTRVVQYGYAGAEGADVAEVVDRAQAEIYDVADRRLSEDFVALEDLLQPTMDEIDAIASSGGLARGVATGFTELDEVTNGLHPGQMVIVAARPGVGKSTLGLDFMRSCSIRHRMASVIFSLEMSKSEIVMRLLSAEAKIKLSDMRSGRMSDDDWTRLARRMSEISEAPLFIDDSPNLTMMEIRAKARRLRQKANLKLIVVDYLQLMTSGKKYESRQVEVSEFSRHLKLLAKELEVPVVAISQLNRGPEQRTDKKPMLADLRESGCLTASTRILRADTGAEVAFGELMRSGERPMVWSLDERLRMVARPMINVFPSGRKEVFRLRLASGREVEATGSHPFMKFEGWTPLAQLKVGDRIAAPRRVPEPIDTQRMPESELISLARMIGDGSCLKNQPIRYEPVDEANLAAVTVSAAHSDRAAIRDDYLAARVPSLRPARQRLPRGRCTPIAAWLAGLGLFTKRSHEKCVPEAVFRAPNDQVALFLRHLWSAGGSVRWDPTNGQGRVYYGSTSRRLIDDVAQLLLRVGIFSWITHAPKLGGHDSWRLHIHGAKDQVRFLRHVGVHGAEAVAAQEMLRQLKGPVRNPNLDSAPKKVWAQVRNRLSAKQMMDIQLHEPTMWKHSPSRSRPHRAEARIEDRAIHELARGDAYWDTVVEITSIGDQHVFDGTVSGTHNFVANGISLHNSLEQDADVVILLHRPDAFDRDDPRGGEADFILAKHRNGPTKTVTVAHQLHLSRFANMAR

Genome polyprotein = Genome polyprotein (dengue virus type 2, UniProt P29990); assay: Dengue-2 NS5 methyltransferase inhibitors, primary screen, biochemical, confirmation dose response (AID 588689); assay type: functional
[9] = biological target: Serine/threonine-protein phosphatase PP1-alpha catalytic subunit (Homo sapiens, UniProt P62136); assay: PP1 phosphatase inhibitors, dose response, biochemical, fluorescence (AID 2403);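 also: phosphatase turnover of OMFP into fluorescent 3-O-methylfluorescein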
[10] = biological target: Transitional endoplasmic reticulum ATPase (Homo sapiens, UniProt P55072); assay: p97 ATPase inhibitors, dose response, biochemical (AID 1534)
[11] = biological target: Heat shock protein HSP 90-alpha (Homo sapiens, UniProt P07900); assay type: functional, organism-based
[12] = inhibitors of Bluetongue virus cytopathic effect, confirmation, arbovirus, BSR cells (AID 1250); assay type: functional;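 also: protection from viral cytopathic effect measured as cell viability by ATP luminescence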
[13] = biological target: Transitional endoplasmic reticulum ATPase (Homo sapiens, UniProt P55072, C522A); assay: C522A mutant p97 ATPase inhibitors, dose response, counter-screen for p97 inhibitor project, biochemical, luminescence (AID 1544)
[14] = biological target: Acyl-homoserine lactone acylase PvdQ (Pseudomonas aeruginosa (strain LESB58), UniProt Q9I194); assay: P. aeruginosa PvdQ acylase inhibitors, dose response, biochemical, fluorescence, plate reader and imaging, cherry-picks (AID 493231)
Chaperone protein dnaK = Chaperone protein dnaK (Escherichia coli, UniProt C3TRK2); assay: DnaK beta-domain binding affinity, SAR follow-up, orthogonal assay for DnaK modulator project, biophysical, isothermal titration calorimetry, full-length DnaK (AID 1495)
[15] = biological target: Glyceraldehyde-3-phosphate dehydrogenase (Homo sapiens, UniProt P04406)
[16] = biological target: Heat shock cognate 71 kDa protein (Homo sapiens, UniProt P11142); assay: In Vitro Hsc70 Dose Response Fluorescence Polarization Assay. [Related pubchem assays: 1072 ]
[17] = biological target: T6, Dual specificity protein phosphatase 6 (Rattus norvegicus, UniProt Q64346)
T6 sequence (Q64346 whole entry): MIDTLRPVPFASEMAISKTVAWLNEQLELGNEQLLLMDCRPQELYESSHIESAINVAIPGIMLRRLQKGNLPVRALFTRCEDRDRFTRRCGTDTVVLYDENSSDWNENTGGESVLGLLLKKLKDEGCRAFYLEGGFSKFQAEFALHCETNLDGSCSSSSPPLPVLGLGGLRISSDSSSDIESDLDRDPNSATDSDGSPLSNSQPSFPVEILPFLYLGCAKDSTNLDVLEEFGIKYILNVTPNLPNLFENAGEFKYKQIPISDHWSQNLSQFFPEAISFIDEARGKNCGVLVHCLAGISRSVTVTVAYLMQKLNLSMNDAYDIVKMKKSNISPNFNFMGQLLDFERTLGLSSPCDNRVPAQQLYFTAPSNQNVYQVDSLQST

[18] = biological target: Heat shock 70 kDa protein 1A (Homo sapiens, UniProt P0DMV8); assay: Hsp70 inhibitors, SAR follow-up, biochemical, fluorescence polarization (AID 1072)
[19] = biological target: T7, Tyrosine-protein phosphatase non-receptor type 7 (Homo sapiens, UniProt P35236); assay type: functional
T7 sequence (P35236 whole entry): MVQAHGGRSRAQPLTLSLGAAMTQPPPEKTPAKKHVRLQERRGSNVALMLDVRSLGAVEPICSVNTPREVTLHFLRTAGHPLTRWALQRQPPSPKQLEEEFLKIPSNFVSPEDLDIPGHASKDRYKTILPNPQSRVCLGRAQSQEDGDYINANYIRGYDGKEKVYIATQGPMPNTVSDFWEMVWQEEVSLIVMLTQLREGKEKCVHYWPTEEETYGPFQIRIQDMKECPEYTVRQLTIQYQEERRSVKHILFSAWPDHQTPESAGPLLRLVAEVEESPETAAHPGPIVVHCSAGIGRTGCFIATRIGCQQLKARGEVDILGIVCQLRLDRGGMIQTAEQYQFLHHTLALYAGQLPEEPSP

[20] = biological target: T8, Alkaline phosphatase, tissue-nonspecific isozyme (Homo sapiens, UniProt P05186); assay: human TNAP enzyme inhibitors, SAR follow-up, biochemical, luminescent, dose response (AID 1056)
T8 sequence (P05186 whole entry): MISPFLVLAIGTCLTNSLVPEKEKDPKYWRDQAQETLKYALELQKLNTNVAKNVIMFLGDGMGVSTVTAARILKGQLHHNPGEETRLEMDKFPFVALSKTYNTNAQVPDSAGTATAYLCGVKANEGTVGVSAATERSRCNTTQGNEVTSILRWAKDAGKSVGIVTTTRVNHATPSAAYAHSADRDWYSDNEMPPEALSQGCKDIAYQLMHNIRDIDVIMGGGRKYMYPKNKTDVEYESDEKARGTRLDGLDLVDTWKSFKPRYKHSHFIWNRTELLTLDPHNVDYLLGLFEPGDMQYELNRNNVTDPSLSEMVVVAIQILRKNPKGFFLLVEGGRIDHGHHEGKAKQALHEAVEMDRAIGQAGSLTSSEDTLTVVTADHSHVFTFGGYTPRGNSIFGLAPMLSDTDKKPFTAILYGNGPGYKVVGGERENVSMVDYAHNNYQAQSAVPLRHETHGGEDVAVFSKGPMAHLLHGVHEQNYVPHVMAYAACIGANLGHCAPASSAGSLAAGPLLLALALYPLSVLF

[21] = biological target: T6, Dual specificity protein phosphatase 6; assay type: functional
[22] = biological target: Cyclin-dependent kinase 5/CDK5 activator 1 (Homo sapiens, UniProt Q00535); assay: CDK5/p35 kinase inhibitors, dose response, biochemical, cherry-picked samples, set 2 (AID 504545)

CCn1c(=O)n(CC)c2cc(NC(=O)C(C)c3ccccc3)c(Br)cc21 (centres undefined)
IC50 [1]: 21.5 µM (active)
IC50 [2]: > 100 µM (inactive)
IC50 [3]: > 100 µM (inactive)
IC50 [4]: 9.4 µM (active)

O=C(Nc1nc(-c2ccccc2)cs1)c1ccccc1Cl
CC50 (Vero): 14 µM (active)

O=C(Nn1cnnc1)c1ccccc1-c1ccccc1
IC50 (Aspartyl aminopeptidase): 2.89 µM (active)
IC50 (Procathepsin L): > 59.6 µM (not active)

CC1CCCN(C(C(=O)Nc2ccc3c(c2)OCCO3)c2ccccc2)C1 (centres undefined)
IC50 (Staphylococcus aureus): 0.125 µM (active)

CN1CC=C2C(C#N)=C(N)C(C#N)(C#N)C(c3ccsc3)C2C1 (centres undefined)
IC50 [5]: 0.991 µM (active)

O=C(O)CC1OCC=C2CN3CCC45C6=CC(=O)C(O)=C([N+](=O)[O-])C6=NC4C1C2CC35 (centres undefined)
IC50 [6]: > 0.276 µM (active)
EC50 (Protein RecA): 7.02 µM (active)
AC50 [7]: 3.17 µM (active)
AC50 [8]: 6.67 µM (active)
IC50 (Genome polyprotein): > 100 µM (active)
IC50 [9]: 1.97 µM (active)

O=C(O)c1cccc(NN=C2c3ccccc3-c3ccccc32)c1
IC50 [10]: 50 µM (not active)
AC50 [11]: 8.32 µM (active)
IC50 [12]: 23.9 µM (active)
IC50 [13]: > 50 µM (not active)

O=C1N[C@@H](Cc2ccccc2)[C@@H](c2ccco2)O1
AC50 [14]: 7.07 µM (active)

O=C(NCc1ccccc1Br)c1cccs1
Kd (Chaperone protein dnaK): 39.3 µM (inactive)

O=C(O)c1ccc(N2C(=O)c3ccccc3C2=O)cc1
IC50 [15]: > 100 µM (not active)
IC50 [16]: > 100 µM (not active)
IC50 [17]: > 100 µM (inactive)
IC50 [18]: > 100 µM (not active)
IC50 [19]: > 100 µM (not active)
IC50 [20]: > 100 µM (inactive)
IC50 [21]: > 100 µM (inactive)

CC(C)n1cnc2c(Nc3ccc(F)c(Cl)c3)nc(NCCO)nc21
AC50 [22]: 3.36 µM (active)
